The values that follow come from US20260083722A1, “BIFUNCTIONAL DEGRADERS COMPRISING ELECTROPHILIC PROTACS THAT ENGAGE DCAF1 AND PHARMACEUTICAL COMPOSITIONS COMPRISING THE SAME” (THE SCRIPPS RESEARCH INSTITUTE, priority 2022, published 2026).

The target of one test is T1, HA-FKBP12 (Homo sapiens, UniProt P62942).
T1 construct: expressed in transfected cells; host or cells: HEK293T
In words: HA-FKBP12 abundance by Western blotting in transfected HEK293T cells. The test is classed as cell-based. To be noted: for quantity of HA-FKBP12 and FLAG-DCAF1 in inhibitor-treated cells: HEK293T co-expressing HA-FKBP12 and FLAG-DCAF1. An excerpt:
(A) Left, western blots showing concentration-dependent effects of YT47R (upper) and YT41R (lower) on FKBP12 abundance in HEK293T cells expressing HA-FBKP12 with or without co-expression of FLAG-DCAF1. Right, quantification of HA-FKBP12 abundance in the indicated experimental groups. (B) Left, western blots showing effects of YT47R versus YT47S (upper) and YT41R versus YT41S (lower) on FKBP12 abundance in HEK293T cells co-expressing HA-FBKP12 and FLAG-DCAF1. Right, quantification of HA-FKBP12 abundance in the indicated experimental groups. (C) Western blots showing effects of YT47R (left blots) and YT41R (right blots) on FKBP12 abundance in HEK293T cells co-expressing HA-FBKP12 and either FLAG-DCAF1-WT or FLAG-DCAF1-C1113A mutant. Quantification of HA-FKBP12 abundance in the indicated experimental groups is shown in the adjacent bar graphs. For (A-C), FKBP12 abundance was determined at 24 h post-treatment with compounds, and data are mean values±SEM for three independent experiments. Statistical significance was calculated with unpaired two-tailed Student's t-tests comparing YT41R/YT47R- and DMSO-treated cells. ***P<0.001, ****P<0.0001.
(A) Left, western blots showing effects of proteasome (MG132) and Neddylation (MLN4924) inhibitors (1 h pre-treatment) on YT47R- and YT41R-dependent degradation of FKBP12 in HEK293T cells co-expressing HA-FBKP12 and FLAG-DCAF1. FKBP12 abundance was determined at 24 h post-treatment with YT47R or YT41R. Right, quantification of HA-FKBP12 abundance in the indicated experimental groups. (B) Left, western blots showing effects of the FKBP12 ligand SLF (20 μM) or DCAF1 ligand MY-11B (1 h pre-treatment with 20 μM SLF or 5 μM MY-11B) on YT47R- and YT41R-dependent degradation of FKBP12 in HEK293T cells co-expressing HA-FBKP12 and FLAG-DCAF1. FKBP12 abundance was determined at 24 h post-treatment with YT47R or YT41R. Right, quantification of HA-FKBP12 abundance in the indicated experimental groups. (C) Left, western blots showing effects of MY-11A or MY-11B (5 μM, 1 h pre-treatment) on YT47R- and YT41R-dependent degradation of FKBP12 in HEK293T cells co-expressing HA-FBKP12 and FLAG-DCAF1. FKBP12 abundance was determined at 24 h post-treatment with YT47R or YT41R. Right, quantification of HA-FKBP12 abundance in the indicated experimental groups. For (A-C), data are mean values±SEM for three-five independent experiments. Statistical significance was calculated with unpaired two-tailed Student's t-tests comparing YT41R/YT47R- and DMSO-treated cells. ****P<0.0001.
Figure S3. Concentration-dependent degradation of FKBP12 by DCAF1-directed electrophilic PROTACs. Top, western blots showing concentration-dependent effects of YT47R and YT41R on FKBP12 abundance in HEK293T cells co-expressing HA-FBKP12 and FLAG-DCAF1. Data are mean values±SEM for four independent experiments. Statistical significance was calculated with unpaired two-tailed Student's t-tests comparing YT41R/YT47R- and DMSO-treated cells. *P<0.1, **P<0.01, ***P<0.001, ****P<0.0001.
Figure S4. Time-dependent degradation of FKBP12 by DCAF1-directed electrophilic PROTACs. Top, western blots showing time-dependent effects of YT47R and YT41R (2 μM each) on FKBP12 abundance in HEK293T cells co-expressing HA-FBKP12 and FLAG-DCAF1. Data are mean values±SEM for four independent experiments. Statistical significance was calculated with unpaired two-tailed Student's t-tests comparing YT41R/YT47R- and DMSO-treated cells. ****P<0.0001.
We next treated HEK293T cells co-transfected with FLAG epitope-tagged full length DCAF1 (a.a.'s 1-1507) and HA (hemagglutinin) epitope-tagged FKBP12 with a concentration range of YT41R or YT47R and, after 24 h, measured HA-FKBP12 abundance by Western blotting.
(In general: A western blot detects proteins with antibodies after separation by electrophoresis.)

Another test concerns the target T2, DCAF1_C1113 (Homo sapiens, UniProt Q9Y4B6).
T2 construct: endogenous in cells; host or cells: primary human T cells
In words: cysteine-directed MS-ABPP (IA-DTB probe) in primary human T cells. The class given is cell-based. To be noted: 3 h; for reactivity with DCAF1_C1113: 20 μM compound. The protocol: (A) Structures of a set of stereochemically defined azetidine acrylamides MY-1A (1), MY-1B (2), MY-3A (3), and MY-3B (4). (B) Heat map showing cysteines that were substantially engaged by azetidine acrylamides (>75% by at least one compound) in human T cells (20 μM compound, 3 h) as determined by MS-ABPP using an iodoacetamide desthiobiotin (IA-DTB) probe following previously described methods^21. Red arrow marks DCAF1_C1113. (C) MS-ABPP quantification of IA-DTB labeling of DCAF1_C1113 from T cells treated with the indicated azetidine acrylamides (20 μM, 3 h) relative to control T cells treated with DMSO. (D) MS-ABPP quantification of IA-DTB labeling of the indicated cysteines in DCAF1 from T cells treated with MY-1B (20 μM, 3 h) relative to control T cells treated with DMSO. For (B-D), data represent average values (for C and D, average values±SEM) from three independent experiments each performed with two technical replicates, where cysteines were required to have been quantified in at least two experiments for interpretation.
Guided by the principles of diversity-oriented synthesis^22, specifically the design of compounds with densely functionalized and entropically constrained sp^3-rich cores bearing one or more stereocenters, we generated a set of stereoisomeric azetidine acrylamides (FIG. 1A) and screened these compounds by cysteine-directed MS-ABPP^23-26 in primary human T cells. Across more than 10000 quantified cysteines, these experiments uncovered several azetidine acrylamide-cysteine interactions (FIG. 1B and Dataset S1), including the stereo-(FIG. 1B, C) and site-(FIG. 1D) selective engagement of C1113 on the E3 ligase substrate adaptor DCAF1. […] Other quantified cysteines in DCAF1 were unaffected by MY-1B (FIG. 1D).

The target of test [1] is T3, recombinant DCAF1-WT (a.a.'s 1046-1396) (Homo sapiens, UniProt Q9Y4B6).
T3 construct: form of DCAF1 containing the WD40 domain (amino acids (a.a.'s) 1046-1396); made in house
In words: gel-ABPP with recombinant purified DCAF1-WT doped into HEK293T cell proteome. The class given is binding. To be noted: for block of MY-11B labeling of recombinant DCAF1 by pre-treatment: 6.25-100 μM, MY-11B 25 μM, 1 h. The text has this:
FIG. 2 that azetidine acrylamides stereo- and site-selectively engage recombinant DCAF1_C1113. (A) Domain map of DCAF1 with the region used for recombinant protein studies marked in a bracket (a.a.'s 1046-1396) and C1113 highlighted in red. (B) Crystal structure of a DCAF1-Vpx complex (pdb: 5AJA). DCAF1 (a.a.'s 1046-1396) is shown in cyan, Vpx is shown in yellow, and C1113, which is located at the DCAF1-Vpx interface is shown in red. (C) Structures of alkyne-modified azetidine acrylamides MY-11A (5) and MY-11B (6). (D) Gel-ABPP showing the concentration-dependent reactivity of MY-11A and MY-11B (1 h) reactivity with recombinant, purified DCAF1-WT or the DCAF1-C1113A mutant (0.06 μg/μL of DCAF1 protein per sample) doped into HEK293T cell proteome (1 μg/μL). MY-11A/B labeling of proteins was visualized by CuAAC conjugation to an azide-rhodamine tag followed by SDS-PAGE and in-gel fluorescence scanning. Results are from a single experiment representative of two independent experiments. (E) Gel-ABPP showing the concentration-dependent effects of MY-1A and MY-1B on MY-11B reactivity with DCAF1-WT. Samples were treated with MY-1A/B for 2 h, followed by MY-11B (25 μM, 1 h) and analyzed as described in (D). Left, quantification of data presented as mean values±SEM from two independent experiments. Right, representative gel-ABPP results. (D, E) Lower images are Coomassie blue-stained gels corresponding to ABPP gels shown in upper images.
(A) Structures of candidate electrophilic PROTACs YT41R (7), YT41S (8), YT47R (9), and YT47S (10). (B) Gel-ABPP showing the concentration-dependent effects of YT41R and YT47R on MY-11B reactivity with DCAF1-WT protein (0.06 μg/μL of DCAF1 protein per sample) doped into HEK293T cell proteome (1 μg/μL). Also shown are the effects of YT41S and YT47S tested at a single concentration (100 μM). Samples were treated with heterobifunctional compounds for 2 h, followed by MY-11B (25 μM, 1 h) and analyzed as described in FIG. 2D. Left, representative gel-ABPP results. Lower image is Coomassie blue-stained gel corresponding to ABPP gel shown in upper image. Right, quantification of data presented as mean values±SEM from two independent experiments.
DCAF1 is a multi-domain substrate receptor for CRL4 ligases (FIG. 2A) that has diverse physiological and disease functions, including being co-opted by the HIV-2 virus to promote degradation of the antiviral host protein SAMHD1^27-28. […] We verified the stereo- and site-selective engagement of DCAF1_C1113 by azetidine acrylamides using alkynylated analogues of MY-1A and MY-1B (MY-11A (5) and MY-11B (6), respectively; FIG. 2C). For these experiments, we doped into HEK293T cell lysates a recombinantly expressed and purified form of DCAF1 containing the WD40 domain (amino acids (a.a.'s) 1046-1396), in complex with the CRL4 adaptor protein DDB1^31, and exposed these samples to varying concentrations of MY-11A or MY-11B. After 1 h, we assessed MY-11A and MY-11B engagement of DCAF1 by copper-catalyzed azide-alkyne cycloaddition (CuAAC)^32 with an azide-rhodamine reporter tag followed by SDS-PAGE and in-gel fluorescence scanning^33. […] We used gel-ABPP to quantify an in vitro target engagement value (TE50) of approximately 25 μM (95% C.I.=13-38 μM) for MY-1B labeling of DCAF1 (FIG. 2E, left).

Where a SMILES comes first, the peptide text is derived from it. The star is where a group is joined. Cbz = O=C(OCc1ccccc1)*

T2 sequence (Q9Y4B6 whole entry): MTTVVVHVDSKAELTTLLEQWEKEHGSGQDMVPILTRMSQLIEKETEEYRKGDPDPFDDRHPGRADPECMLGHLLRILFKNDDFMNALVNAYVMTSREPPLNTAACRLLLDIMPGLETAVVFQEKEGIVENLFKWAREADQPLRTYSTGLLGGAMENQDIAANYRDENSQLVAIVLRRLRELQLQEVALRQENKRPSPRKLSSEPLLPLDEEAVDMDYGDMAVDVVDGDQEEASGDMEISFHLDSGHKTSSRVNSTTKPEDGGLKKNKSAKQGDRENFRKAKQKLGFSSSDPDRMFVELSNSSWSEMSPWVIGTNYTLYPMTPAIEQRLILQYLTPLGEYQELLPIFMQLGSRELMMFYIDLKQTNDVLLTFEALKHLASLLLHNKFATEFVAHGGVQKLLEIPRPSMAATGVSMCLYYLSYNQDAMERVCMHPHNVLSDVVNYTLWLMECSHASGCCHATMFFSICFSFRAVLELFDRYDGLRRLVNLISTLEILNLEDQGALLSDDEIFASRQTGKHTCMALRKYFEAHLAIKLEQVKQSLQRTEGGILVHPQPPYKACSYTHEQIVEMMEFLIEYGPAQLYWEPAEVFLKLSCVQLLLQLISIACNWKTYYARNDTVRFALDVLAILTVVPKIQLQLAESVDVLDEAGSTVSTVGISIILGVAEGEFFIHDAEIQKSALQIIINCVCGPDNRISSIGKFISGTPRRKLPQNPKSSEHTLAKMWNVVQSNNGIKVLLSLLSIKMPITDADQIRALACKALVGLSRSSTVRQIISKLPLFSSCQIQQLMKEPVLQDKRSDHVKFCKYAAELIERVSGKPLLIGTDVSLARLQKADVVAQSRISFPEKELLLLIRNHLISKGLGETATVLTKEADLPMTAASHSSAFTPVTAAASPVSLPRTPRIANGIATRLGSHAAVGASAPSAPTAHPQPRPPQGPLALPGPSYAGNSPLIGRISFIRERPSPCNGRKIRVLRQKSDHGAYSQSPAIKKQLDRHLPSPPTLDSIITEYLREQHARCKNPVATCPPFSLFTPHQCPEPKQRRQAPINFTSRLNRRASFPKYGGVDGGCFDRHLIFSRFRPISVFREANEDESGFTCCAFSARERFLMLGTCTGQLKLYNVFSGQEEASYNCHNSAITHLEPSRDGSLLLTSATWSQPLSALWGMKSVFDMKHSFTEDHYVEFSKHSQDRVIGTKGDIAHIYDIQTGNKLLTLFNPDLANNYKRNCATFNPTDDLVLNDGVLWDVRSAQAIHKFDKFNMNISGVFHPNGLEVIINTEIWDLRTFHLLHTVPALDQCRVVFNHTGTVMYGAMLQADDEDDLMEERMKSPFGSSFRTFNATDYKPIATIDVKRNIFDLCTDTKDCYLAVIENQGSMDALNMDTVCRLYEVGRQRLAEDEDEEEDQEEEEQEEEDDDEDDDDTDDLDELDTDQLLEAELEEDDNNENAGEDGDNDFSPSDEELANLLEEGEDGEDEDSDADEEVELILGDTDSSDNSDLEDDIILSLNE
T1 sequence (P62942 whole entry): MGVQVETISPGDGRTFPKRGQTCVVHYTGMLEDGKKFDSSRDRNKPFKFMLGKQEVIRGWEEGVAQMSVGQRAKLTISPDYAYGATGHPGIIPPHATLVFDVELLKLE
T3 sequence (Q9Y4B6 1046-1396): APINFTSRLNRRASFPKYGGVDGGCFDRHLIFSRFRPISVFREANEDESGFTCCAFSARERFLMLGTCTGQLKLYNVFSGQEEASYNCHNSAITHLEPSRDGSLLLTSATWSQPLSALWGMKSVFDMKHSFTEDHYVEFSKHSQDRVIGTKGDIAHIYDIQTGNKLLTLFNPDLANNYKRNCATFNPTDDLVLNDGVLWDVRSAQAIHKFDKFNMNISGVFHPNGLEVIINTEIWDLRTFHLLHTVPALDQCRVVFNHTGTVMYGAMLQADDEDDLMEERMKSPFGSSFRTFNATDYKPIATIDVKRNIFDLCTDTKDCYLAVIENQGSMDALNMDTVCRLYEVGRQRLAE
T3 sequence (Q16531 whole entry partner, the tested form may be a part): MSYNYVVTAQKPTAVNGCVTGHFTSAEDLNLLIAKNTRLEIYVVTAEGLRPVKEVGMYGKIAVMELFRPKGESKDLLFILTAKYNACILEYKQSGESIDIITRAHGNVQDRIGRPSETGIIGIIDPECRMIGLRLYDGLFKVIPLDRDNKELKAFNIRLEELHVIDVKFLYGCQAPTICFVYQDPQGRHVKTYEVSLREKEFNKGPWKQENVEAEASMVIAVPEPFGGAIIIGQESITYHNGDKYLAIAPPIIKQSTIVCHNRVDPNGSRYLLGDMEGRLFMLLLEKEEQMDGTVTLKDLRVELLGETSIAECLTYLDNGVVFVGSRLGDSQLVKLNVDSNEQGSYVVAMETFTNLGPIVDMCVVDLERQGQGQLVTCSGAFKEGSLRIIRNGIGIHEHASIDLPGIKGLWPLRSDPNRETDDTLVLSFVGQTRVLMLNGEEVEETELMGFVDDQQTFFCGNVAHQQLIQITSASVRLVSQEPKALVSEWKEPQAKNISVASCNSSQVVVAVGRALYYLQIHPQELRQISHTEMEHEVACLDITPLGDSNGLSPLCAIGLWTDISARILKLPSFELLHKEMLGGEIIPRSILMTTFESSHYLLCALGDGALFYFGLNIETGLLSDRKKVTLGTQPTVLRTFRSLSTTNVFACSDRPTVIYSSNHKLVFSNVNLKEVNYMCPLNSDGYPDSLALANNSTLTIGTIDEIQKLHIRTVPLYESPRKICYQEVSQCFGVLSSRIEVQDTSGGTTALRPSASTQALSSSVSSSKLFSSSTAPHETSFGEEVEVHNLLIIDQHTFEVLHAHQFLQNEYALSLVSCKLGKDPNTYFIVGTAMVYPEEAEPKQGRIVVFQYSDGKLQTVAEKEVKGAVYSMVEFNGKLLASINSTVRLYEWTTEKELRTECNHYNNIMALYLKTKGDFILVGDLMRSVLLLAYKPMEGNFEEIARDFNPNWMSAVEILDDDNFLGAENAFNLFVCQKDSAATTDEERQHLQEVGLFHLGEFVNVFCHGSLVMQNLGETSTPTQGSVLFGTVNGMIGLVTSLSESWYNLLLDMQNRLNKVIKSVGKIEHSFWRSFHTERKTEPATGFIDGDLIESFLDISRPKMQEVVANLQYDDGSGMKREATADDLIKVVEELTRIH

As to `CC(C)C[C@@H](C=O)NC(=O)[C@H](CC(C)C)NC(=O)[C@H](CC(C)C)NC(=O)OCc1ccccc1` [MG132, reference compound] (Cbz-Leu-Leu-Leu-aldehyde), the “effect on YT41R/YT47R-mediated degradation of HA-FKBP12” value on HA-FKBP12 (5 μM, 1 h pre-treatment followed by 24 h co-treatment with YT41R/YT47R) is “blocked”. In addition, at HA-FKBP12, the “quantity of HA-FKBP12 and FLAG-DCAF1 in inhibitor-treated cells” value is reported as “increased quantities”.
With `NS(=O)(=O)OC[C@@H]1C[C@@H](n2ccc3c(N[C@H]4CCc5ccccc54)ncnc32)C[C@@H]1O` [MLN4924, reference compound], the “quantity of HA-FKBP12 and FLAG-DCAF1 in inhibitor-treated cells” value at HA-FKBP12 is reported as “without causing alterations”. Moreover, the “effect on YT41R/YT47R-mediated degradation of HA-FKBP12” value on HA-FKBP12 (NAE inhibitor, 1 h pre-treatment) was “impaired”.
On to `C=CC(=O)N1C[C@@H](c2ccc(Br)cc2)[C@H]1C(=O)Nc1cccc2cccnc12` [MY-1A, (2S,3R)-1-acryloyl-3-(4-bromophenyl)-N-(84uinoline-8-yl) azetidine-2-carboxamide], for which the “reactivity with DCAF1_C1113” value on DCAF1_C1113 was “inactive”. Besides, the “block of MY-11B labeling of recombinant DCAF1 by pre-treatment” value in test [1] (2 h pre-treatment) is on record as “not”.
With `C=CC(=O)N1C[C@H](c2ccc(Br)cc2)[C@@H]1C(=O)Nc1cccc2cccnc12` [MY-1B, (2R,3S)-1-acryloyl-3-(4-bromophenyl)-N-(84uinoline-8-yl) azetidine-2-carboxamide], the “reactivity with DCAF1_C1113” value on DCAF1_C1113 is listed as “strongest reactivity”. For the same compound, on DCAF1_C1113 (20 μM), the “effect on other quantified cysteines in DCAF1” value was “unaffected”. For the same compound, the “block of MY-11B labeling of recombinant DCAF1 by pre-treatment” value in test [1] (2 h pre-treatment) was “blocked”. In addition, the IC50 in test [1] (gel-ABPP, 2 h pre-treatment, 95% C.I.=13-38 μM, read-out: in vitro target engagement value (TE50) for labeling of DCAF1) was about 25 µM.
On to `C=CC(=O)N1C[C@@H](c2ccc(Br)cc2)[C@@H]1C(=O)Nc1cccc2cccnc12` [MY-3B, (2S,3S)-1-acryloyl-3-(4-bromophenyl)-N-(87uinoline-8-yl) azetidine-2-carboxamide], for which the “reactivity with DCAF1_C1113” value at DCAF1_C1113 is recorded as “weaker enantioselective interaction”.
For the compound `CCC(C)(C)C(=O)C(=O)N1CCCC[C@H]1C(=O)O[C@H](CCc1ccc(OC)c(OC)c1)c1cccc(N)c1` [SLF, reference compound], the “effect on YT41R and YT47R-mediated degradation of HA-FKBP12” value on HA-FKBP12 (20 μM, 1 h pre-treatment) is “blocked”.
Take `C=CC(=O)C1C[C@@H](c2ccc(C(=O)NCCOCCOCCNC(=O)COc3cccc([C@@H](CCc4ccc(OC)c(OC)c4)OC(=O)[C@@H]4CCCCN4C(=O)C(=O)C(C)(C)CC)c3)cc2)[C@H]1C(=O)Nc1cccc2cccnc12` (stereo partly shown) [YT41S]: the “inhibition of MY-11B probe reactivity with recombinant DCAF1” value in test [1] (2 h, then MY-11B 25 μM 1 h, YT41S and YT47S at single concentration 100 μM) was “did not impair”.
